Experimental data: patent publication US12064459B2, “Compositions and methods for improving skin health and for the treatment and prevention of diseases, disorders and conditions associated with pathogenic microbes” (priority 2019, dated 2024)
Values after ≈ are worked out from the molar mass of the structure shown. Like-named read-outs stand apart in the source and are kept apart here. Where a SMILES comes first, the peptide text is derived from it.

Assays:
DBI001 = assay: Biolog phenotype MicroArrays: components enhancing function (efficacy) against fungal or bacterial pathogens; type: cell-based; details: enhancing function of human-derived Janthinobacterium lividum
DB00118 = assay: Antibiotic MIC tests; type: cell-based, Janthinobacterium lividum; details: strain DB00118
Experimental: (§1) The antibiotic resistance profile and MICs tests were performed using Janthinobacterium lividum grown from cultures purified and grown in vegitone LB broth.

DB00121 = assay: Antibiotic MIC tests; type: cell-based, Janthinobacterium lividum; details: strain DB00121
Experimental: as §1

DB02378 = assay: Antibiotic MIC tests; type: cell-based, Janthinobacterium lividum; details: strain DB02378
Experimental: as §1

DB02473 = assay: Antibiotic MIC tests; type: cell-based, Janthinobacterium lividum; details: strain DB02473
Experimental: as §1

E. Coli ATCC25922 = assay: Antibiotic MIC tests; type: cell-based; details: Escherichia coli
[1] = test system: Janthinobacterium lividum strains; assay: Internal antibiotic resistance tests (BD BBL Sensi-Disc, zone of inhibition); type: cell-based; details: all 5 strains; disc content per antibiotic (e.g. penicillin 10 IU); FIG. 5
Experimental: One Janthinobacterium lividum colony of 3-day old grown in 50% BHI agar was mixed well in 1 ml of 1×PBS buffer, diluted 10× and 100×, respectively. 200 μl of diluted Janthinobacterium lividum cells were evenly plated onto R2A/BHI agar plates in triplicate in 150 mm petri dishes. Antibiotic discs (BD BBL Sensi-Disc antimicrobial susceptibility test discs) were dispensed using a Disc dispenser (BD BBL Sensi-Disc Designer Dispenser System, 12-Place). Plates were incubated for 2-3 days at room temperature and imaged at the end of incubation.
The sensitivity of Janthinobacterium lividum to antibiotics is reflected by a clear zone of inhibition of Janthinobacterium lividum cells surrounding the antibiotic discs. The zone of inhibition was measured using ImageJ and was transformed into cm for analysis.

[2] = Janthinobacterium lividum, read-out: MIC

Row | Molecule | Concentration Range of Efficacy (DBI001) [mM] | further results
1 | CC(O)C(N)=O (racemic) [D,L-Lactamide] | 0.1 to 1 | 
2 | O=P(O)(O)OCC(O)CO (racemic) [D,L-α-Glycerol Phosphate] | 2 to 20 | 
3 | CC(O)CO (stereo not shown) [1,2-Propanediol] | 2 to 20 | 
4 | Nc1ncnc2c1ncn2C1CC(O)C(CO)O1 (stereo not shown) [2-Deoxy Adenosine] | 2 to 20 | 
5 | O=CC[C@H](O)[C@H](O)CO [2-Deoxy-DRibose] | 1 to 5 | 
6 | O=C[C@@H](O)[C@H](O[C@@H]1O[C@H](CO)[C@H](O)[C@H](O)[C@H]1O)[C@H](O)CO [3-0-β-D-Galactopyranosyl-D Arabinose] | 1 to 5 | 
7 | C[C@H](N)C(=O)N[C@@H](CCC(=O)O)C(=O)O [Ala-Glu] (H-Ala-Glu-OH) | 0.1 to 1 | 
8 | CC[C@H]1OC(=O)[C@H](C)[C@@H](O[C@H]2C[C@@](C)(OC)[C@@H](O)[C@H](C)O2)[C@H](C)[C@@H](O[C@@H]2O[C@H](C)C[C@H](N(C)C)[C@H]2O)[C@](C)(O)C[C@@H](C)CN(C)[C@H](C)[C@@H](O)[C@]1(C)O [Azithromycin] |  | MIC (DB00118; [2]): 8 µg/mL (≈ 10.7 µM); MIC (DB00121; [2]): 0.5 µg/mL (≈ 0.668 µM); MIC (DB02378; [2]): 2 µg/mL (≈ 2.67 µM); MIC (DB02473; [2]): 1 µg/mL (≈ 1.34 µM); MIC (E. Coli ATCC25922): 8 µg/mL (≈ 10.7 µM)
9 | CO/N=C(\C(=O)N[C@@H]1C(=O)N2C(C(=O)[O-])=C(C[N+]3(C)CCCC3)CS[C@H]12)c1csc(N)n1 [Cefepime] |  | MIC (DB00118; [2]): 0.25 µg/mL (≈ 0.52 µM); MIC (E. Coli ATCC25922): < 0.063 µg/mL
10 | CO/N=C(\C(=O)N[C@@H]1C(=O)N2C(C(=O)O)=C(CSc3nc(=O)c(=O)[nH]n3C)CS[C@H]12)c1csc(N)n1 [Ceftriaxone] |  | MIC (DB00118; [2]): 0.5 µg/mL (≈ 0.902 µM); MIC (DB00121; [2]): 0.25 µg/mL (≈ 0.451 µM); MIC (DB02378; [2]): 0.25 µg/mL (≈ 0.451 µM); MIC (DB02473; [2]): 0.5 µg/mL (≈ 0.902 µM); MIC (E. Coli ATCC25922): < 0.063 µg/mL
11 | CCC[C@@H]1C[C@@H](C(=O)N[C@@H]([C@H]2O[C@H](SC)[C@H](O)[C@@H](O)[C@H]2O)[C@H](C)Cl)N(C)C1 [Clindamycin] |  | MIC (DB00118; [2]): 32 µg/mL (≈ 75.3 µM); MIC (DB00121; [2]): 16 µg/mL (≈ 37.6 µM); MIC (DB02378; [2]): 32 µg/mL (≈ 75.3 µM); MIC (DB02473; [2]): 16 µg/mL (≈ 37.6 µM); MIC (E. Coli ATCC25922): < 64 µg/mL
12 | OC[C@@H](O)C(O)[C@H](O)CO [D-Arabitol] | 1 to 5 | 
13 | OC[C@H]1O[C@@H](O[C@H]2[C@H](O)[C@@H](O)[C@H](O)O[C@@H]2CO)[C@H](O)[C@@H](O)[C@@H]1O [D-Cellobiose] | 2 to 20 | 
14 | O=C(CO)[C@@H](O)[C@H](O)[C@H](O)CO [D-Fractose] | 2 to 20 | 
15 | O=C(O)[C@H]1OC(O)[C@H](O)[C@@H](O)[C@@H]1O (stereo partly drawn) [D-Glucoronic Acid] | 2 to 20 | 
16 | N[C@@H](C(=O)O)[C@@H](O)[C@H](O)[C@H](O)CO [D-Glucosaminic Acid] | 2 to 20 | 
17 | O=P(O)(O)O[C@H]1O[C@H](CO)[C@@H](O)[C@H](O)[C@H]1O [D-Glucose-1-Phosphate] | 2 to 20 | 
18 | OC[C@H]1O[C@@](CO)(O[C@H]2O[C@H](CO)[C@@H](O)[C@H](O)[C@H]2O)[C@@H](O[C@H]2O[C@H](CO)[C@@H](O)[C@H](O)[C@H]2O)[C@@H]1O [D-Melezitose] | 1 to 5 | 
19 | OC[C@H]1O[C@H](OCC2O[C@@H](O)[C@H](O)[C@@H](O)[C@@H]2O)[C@H](O)[C@@H](O)[C@H]1O (stereo partly drawn) [D-Melibiose] | 2 to 20 | 

Row | Molecule | Concentration Range of Efficacy (DBI001) [mM] | further results
20 | O=C(O)[C@@H](O)[C@H](O)C(=O)O [D-Tartaric acid] | 1 to 5 | 
21 | OC[C@@H](O)[C@H](O)[C@H](O)[C@@H](O)CO [Dulcitol] | 2 to 20 | 
22 | OC[C@H](O)C(O)[C@@H](O)CO [L-Arabitol] | 1 to 5 | 
23 | C[C@H]1COc2c(N3CCN(C)CC3)c(F)cc3c(=O)c(C(=O)O)cn1c23 [Levofloxacin] |  | MIC (DB00118; [2]): 0.25 µg/mL (≈ 0.692 µM); MIC (DB02378; [2]): 0.25 µg/mL (≈ 0.692 µM); MIC (DB02473; [2]): 0.25 µg/mL (≈ 0.692 µM); MIC (E. Coli ATCC25922): 0.063 µg/mL (≈ 0.174 µM)
24 | OC[C@@H](O)[C@@H](O[C@H]1O[C@H](CO)[C@@H](O)[C@H](O)[C@H]1O)[C@H](O)[C@@H](O)CO [Maltitol] | 1 to 5 | 
25 | CN(C)c1ccc(O)c2c1C[C@H]1C[C@H]3[C@H](N(C)C)C(O)=C(C(N)=O)C(=O)[C@@]3(O)C(O)=C1C2=O [Minocycline] |  | MIC (DB00121; [2]): < 0.063 µg/mL; MIC (DB02473; [2]): 0.25 µg/mL (≈ 0.546 µM); MIC (E. Coli ATCC25922): 0.25 µg/mL (≈ 0.546 µM)
26 | O=[N+]([O-])O [Nitrate] | 0.1 to 1 | 
27 | O=NO [Nitrite] | 0.1 to 1 | 
28 | OC[C@H]1O[C@H](OC[C@H]2OC(O)(CO)[C@@H](O)[C@@H]2O)[C@H](O)[C@@H](O)[C@@H]1O (stereo partly shown) [Palatinose] | 1 to 5 | 
29 | OC[C@@]12OC[C@@H](O1)[C@@H](O)[C@@H](O)[C@@H]2O [Sedoheptulosan] | 1 to 5 | 
30 | OC[C@H]1O[C@H](OC[C@H]2O[C@H](OC[C@H]3O[C@H](O[C@]4(CO)O[C@H](CO)[C@@H](O)[C@@H]4O)[C@H](O)[C@@H](O)[C@@H]3O)[C@H](O)[C@@H](O)[C@H]2O)[C@H](O)[C@@H](O)[C@H]1O [Stachyose] | 1 to 5 | 
31 | CN(C)[C@@H]1C(O)=C(C(N)=O)C(=O)[C@@]2(O)C(O)=C3C(=O)c4c(O)cccc4[C@@](C)(O)[C@H]3C[C@@H]12 [Tetracycline] |  | MIC (DB00118; [2]): 0.5 µg/mL (≈ 1.13 µM); MIC (DB00121; [2]): 0.25 µg/mL (≈ 0.563 µM); MIC (DB02378; [2]): 0.5 µg/mL (≈ 1.13 µM); MIC (DB02473; [2]): 0.5 µg/mL (≈ 1.13 µM); MIC (E. Coli ATCC25922): 1 µg/mL (≈ 2.25 µM)
32 | O=C(CO)[C@@H](O[C@H]1O[C@H](CO)[C@@H](O)[C@H](O)[C@H]1O)[C@H](O)[C@H](O)CO [Turanose] | 1 to 5 | 
33 | NC(N)=O [Urea] | 0.1 to 1 | 
34 | CC1(C)S[C@@H]2[C@H](NC(=O)[C@H](N)c3ccccc3)C(=O)N2[C@H]1C(=O)O [ampicillin] |  | sensitivity of Janthinobacterium lividum to antibiotic discs [1]: sensitive
35 | CC(=O)OCC1=C(C(=O)O)N2C(=O)[C@@H](NC(=O)Cc3cccs3)[C@H]2SC1 [cephalothin] |  | sensitivity of Janthinobacterium lividum to antibiotic discs [1]: sensitive
36 | OC[C@H]1O[C@@H]2O[C@H]3[C@H](O)[C@@H](O)[C@@H](O[C@H]4[C@H](O)[C@@H](O)[C@@H](O[C@H]5[C@H](O)[C@@H](O)[C@@H](O[C@H]6[C@H](O)[C@@H](O)[C@@H](O[C@H]7[C@H](O)[C@@H](O)[C@@H](O[C@H]8[C@H](O)[C@@H](O)[C@@H](O[C@H]9[C@H](O)[C@@H](O)[C@@H](O[C@H]1[C@H](O)[C@H]2O)O[C@@H]9CO)O[C@@H]8CO)O[C@@H]7CO)O[C@@H]6CO)O[C@@H]5CO)O[C@@H]4CO)O[C@@H]3CO [g-Cyclodextrin] | 1 to 5 | 
37 | OC[C@@H](O)[C@@H](O)CO [i-Erythritol] | 1 to 5 | 
38 | OC[C@H]1O[C@@H]2O[C@H]3[C@H](O)[C@@H](O)[C@@H](O[C@H]4[C@H](O)[C@@H](O)[C@@H](O[C@H]5[C@H](O)[C@@H](O)[C@@H](O[C@H]6[C@H](O)[C@@H](O)[C@@H](O[C@H]7[C@H](O)[C@@H](O)[C@@H](O[C@H]1[C@H](O)[C@H]2O)O[C@@H]7CO)O[C@@H]6CO)O[C@@H]5CO)O[C@@H]4CO)O[C@@H]3CO [α-Cyclodextrin] | 1 to 5 | 

Row | Molecule | Concentration Range of Efficacy (DBI001) [mM] | further results
39 | O=C1CCC(C(=O)O)O1 (stereo not drawn) [α-Hydroxy Glutaric Acid-g-Lactone] | 2 to 20 | 
40 | COC1OC(CO)C(O)C(O)C1O [α-Methyl-D-Galactoside] | 2 to 20 | 
41 | CO[C@H]1O[C@H](CO)[C@@H](O)[C@H](O)[C@H]1O [α-Methyl-D-Glucoside] | 1 to 5 | 
42 | COC1OC(CO)C(O)C(O)C1O [α-Methyl-D-Mannoside] | 1 to 5 | 
43 | OC[C@H]1O[C@@H]2O[C@H]3[C@H](O)[C@@H](O)[C@@H](O[C@H]4[C@H](O)[C@@H](O)[C@@H](O[C@H]5[C@H](O)[C@@H](O)[C@@H](O[C@H]6[C@H](O)[C@@H](O)[C@@H](O[C@H]7[C@H](O)[C@@H](O)[C@@H](O[C@H]8[C@H](O)[C@@H](O)[C@@H](O[C@H]1[C@H](O)[C@H]2O)O[C@@H]8CO)O[C@@H]7CO)O[C@@H]6CO)O[C@@H]5CO)O[C@@H]4CO)O[C@@H]3CO [β-Cyclodextrin] | 1 to 5 | 
44 | CO[C@@H]1O[C@H](CO)[C@@H](O)[C@H](O)[C@H]1O [β-Methyl-D-Galactoside] | 1 to 5 | 
45 | CO[C@@H]1O[C@H](CO)[C@@H](O)[C@H](O)[C@H]1O [β-Methyl-D-Glucoside] | 2 to 20 | 
46 | CO[C@@H]1O[C@H](C(=O)O)[C@@H](O)[C@H](O)[C@H]1O [β-Methyl-D-Glucuronic Acid] | 1 to 5 | 
47 | COC1OCC(O)C(O)C1O [β-Methyl-D-Xyloside] | 1 to 5 | 
48 | Chondroitin Sulfate C | 1 to 5 | 
49 | Glycogen | 1 to 5 | 
50 | Inulin | 1 to 5 | 
51 | Laminarin | 1 to 5 | 
52 | Maltotriose | 2 to 20 | 
53 | Mannan | 1 to 5 | 
54 | Neomycin |  | MIC (DB00118): 2 µg/mL; MIC (DB00121): 1 µg/mL; MIC (DB02378): 2 µg/mL; MIC (DB02473): 2 µg/mL
55 | Pectin | 1 to 5 | 
56 | Tween 40 | 2 to 20 | 
57 | dextrin | 1 to 5 | 
